Laboratory results published in the supplement of paper PMC10307832.

Columns and labels:
Assay in all cases: relative viability (nuclei count vs DMSO), 5 days (fraction); higher = more cells survive
[1] = tested on: NCI-H1666
Outline: (§1)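 Lung cancer cell lines, seeded in 1536-well plates, were treated the following day by pin tool with a single drug or with five library-drug doses (not always all listed) in √10 steps on top of a fixed anchor-drug dose. Cells were fixed and nuclei stained in one step after 5 days, and nuclei were counted. Relative viability is the nuclei count for treated wells divided by that for vehicle wells, reported as medians of duplicate plates.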

[2] = tested on: NCI-H2087
Outline: as §1

[3] = tested on: NCI-H23
Outline: as §1

[4] = tested on: BEN
Outline: as §1

[5] = tested on: NCI-H2009
Outline: as §1

[6] = tested on: HARA
Outline: as §1

[7] = tested on: NCI-H2023
Outline: as §1

[8] = tested on: NCI-H441
Outline: as §1

[9] = tested on: NCI-H3122
Outline: as §1

[10] = tested on: NCI-H2347
Outline: as §1

[11] = tested on: NCI-H647
Outline: as §1

[12] = tested on: NCI-H2126
Outline: as §1

[13] = tested on: NCI-H727
Outline: as §1

[14] = tested on: NCI-H650
Outline: as §1

[15] = tested on: NCI-H838
Outline: as §1

[16] = tested on: NCI-H1993
Outline: as §1

[17] = tested on: 201T
Outline: as §1

[18] = tested on: NCI-H596
Outline: as §1

[19] = tested on: EMC-BAC-2
Outline: as §1

[20] = tested on: LOU-NH91
Outline: as §1

[21] = tested on: NCI-H1395
Outline: as §1

[22] = tested on: LCLC-103H
Outline: as §1

[23] = tested on: HCC-44
Outline: as §1

CC(C)Oc1cc(Nc2nc(N[C@@H](C)c3ccc(F)cn3)ncc2Cl)n[nH]1 [AZ23] + CS(=O)(=O)N1CCN(Cc2cc3nc(-c4cccc5[nH]ncc45)nc(N4CCOCC4)c3s2)CC1 [Pictilisib] (partner 1 µM)
relative viability ([1]; first compound 0.01 µM): 0.51
relative viability ([1]; first compound 0.03162 µM): 0.559
relative viability ([1]; first compound 0.3162 µM): 0.417
relative viability ([2]; first compound 0.01 µM): 0.867
relative viability ([2]; first compound 0.03162 µM): 1.06
relative viability ([2]; first compound 0.3162 µM): 0.964
relative viability ([3]; first compound 0.03162 µM): 0.543
relative viability ([3]; first compound 0.3162 µM): 0.448
relative viability ([4]; first compound 0.01 µM): 0.527
relative viability ([4]; first compound 0.03162 µM): 0.639
relative viability ([4]; first compound 0.3162 µM): 0.653
relative viability ([5]; first compound 0.01 µM): 0.943
relative viability ([5]; first compound 0.03162 µM): 0.88
relative viability ([5]; first compound 0.3162 µM): 0.854
relative viability ([6]; first compound 0.01 µM): 0.421
relative viability ([6]; first compound 0.03162 µM): 0.373
relative viability ([6]; first compound 0.3162 µM): 0.282
relative viability ([7]; first compound 0.03162 µM): 0.248
relative viability ([7]; first compound 0.3162 µM): 0.192
relative viability ([8]; first compound 0.01 µM): 0.658
relative viability ([8]; first compound 0.03162 µM): 0.601
relative viability ([8]; first compound 0.3162 µM): 0.457
relative viability ([9]; first compound 0.01 µM): 0.658
relative viability ([9]; first compound 0.03162 µM): 0.598
relative viability ([9]; first compound 0.3162 µM): 0.579
relative viability ([10]; first compound 0.01 µM): 0.525
relative viability ([10]; first compound 0.03162 µM): 0.681
relative viability ([10]; first compound 0.3162 µM): 0.543
relative viability ([11]; first compound 0.03162 µM): 0.5
relative viability ([11]; first compound 0.3162 µM): 0.447
relative viability ([12]; first compound 0.01 µM): 0.485
relative viability ([12]; first compound 0.03162 µM): 0.514
relative viability ([12]; first compound 0.3162 µM): 0.452
relative viability ([13]; first compound 0.01 µM): 0.268
relative viability ([13]; first compound 0.03162 µM): 0.422
relative viability ([13]; first compound 0.3162 µM): 0.329
relative viability ([14]; first compound 0.01 µM): 0.841
relative viability ([14]; first compound 0.03162 µM): 0.869
relative viability ([14]; first compound 0.3162 µM): 1.1
relative viability ([15]; first compound 0.01 µM): 0.467
relative viability ([15]; first compound 0.03162 µM): 0.464
relative viability ([15]; first compound 0.3162 µM): 0.51
relative viability ([16]; first compound 0.01 µM): 0.755
relative viability ([16]; first compound 0.3162 µM): 0.869
relative viability ([17]; first compound 0.01 µM): 0.685
relative viability ([17]; first compound 0.03162 µM): 0.683
relative viability ([17]; first compound 0.3162 µM): 0.69
relative viability ([18]; first compound 0.01 µM): 0.359
relative viability ([18]; first compound 0.03162 µM): 0.342
relative viability ([18]; first compound 0.3162 µM): 0.397
relative viability ([19]; first compound 0.01 µM): 0.535
relative viability ([19]; first compound 0.03162 µM): 0.576
relative viability ([19]; first compound 0.3162 µM): 0.51
relative viability ([20]; first compound 0.01 µM): 0.483
relative viability ([20]; first compound 0.03162 µM): 0.525
relative viability ([20]; first compound 0.3162 µM): 0.528
relative viability ([21]; first compound 0.03162 µM): 0.666
relative viability ([21]; first compound 0.3162 µM): 0.577
relative viability ([22]; first compound 0.01 µM): 0.571
relative viability ([22]; first compound 0.03162 µM): 0.555
relative viability ([22]; first compound 0.3162 µM): 0.533
relative viability ([23]; first compound 0.01 µM): 0.727
relative viability ([23]; first compound 0.03162 µM): 0.629
relative viability ([23]; first compound 0.3162 µM): 0.572
